Paper PMC12120773, “SIRT4 Promotes Pancreatic Cancer Stemness by Enhancing Histone Lactylation and Epigenetic Reprogramming Stimulated by Calcium Signaling” (Advanced Science, 2025)

Key:
[1] = target: T1, ENO1 (Enolase 1, α isoform of enolase) (Homo sapiens, UniProt P06733, K358R); assay: SPR steady-state affinity (Biacore T200, CM5 chip); assay type: binding
T1 construct: recombinant protein expressed in E. coli (printed for the mutants), amine-coupled to CM5 chip

[2] = target: T2, ENO1 (Enolase 1, α isoform of enolase) (Homo sapiens, UniProt P06733, K358Q); assay: SPR steady-state affinity (Biacore T200, CM5 chip); assay type: binding
T2 construct: recombinant protein expressed in E. coli (printed for the mutants), amine-coupled to CM5 chip
T2 sequence (P06733 2-434 K358Q): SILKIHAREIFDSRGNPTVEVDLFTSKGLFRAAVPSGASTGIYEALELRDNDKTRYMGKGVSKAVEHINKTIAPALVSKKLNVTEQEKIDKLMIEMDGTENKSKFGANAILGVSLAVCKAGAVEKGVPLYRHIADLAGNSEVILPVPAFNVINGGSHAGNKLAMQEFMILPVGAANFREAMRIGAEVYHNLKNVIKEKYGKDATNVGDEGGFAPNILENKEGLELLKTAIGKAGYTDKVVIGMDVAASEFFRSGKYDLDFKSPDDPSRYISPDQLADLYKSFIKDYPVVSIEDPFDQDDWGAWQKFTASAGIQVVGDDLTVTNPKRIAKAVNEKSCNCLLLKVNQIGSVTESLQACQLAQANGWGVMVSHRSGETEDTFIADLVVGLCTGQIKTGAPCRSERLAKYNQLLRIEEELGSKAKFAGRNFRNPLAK

T1 sequence (P06733 2-434 K358R): as the sequence (P06733 2-434 K358Q) above, with Q357R counted along it

Kd [1]: 2.61 µM
Kd [2]: 17.7 µM
SMILES: O=C(O)[C@@H](CO)OP(=O)(O)O [2‐PG]
